Source: PubChem BioAssay AID2060900 (Molecular Pharmacology Branch, DTP, NCI, 2025)
Each block holds one compound with its values, some of them ahead of it.

Test system: 521955-158-R2-J5-PDC complex spheroids, viability
Experiment: Anticancer human tumor 521955-158-R2-J5-PDC patient-derived pancreatic carcinoma cell line growth inhibition [RAS]
Conditions: for IC50: curve of first compound; for viability, T/C: stronger effect = lower value
How it was run: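 Agents were tested in combination matrices in half-log decrements from a top concentration at or near clinical Cmax (10 microM if undetermined). Targets were multi-cell spheroids of tumour lines plus HUVEC and MSC stromal cells.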

[1] = second compound 0.00316 µM, first compound 0.00316 µM
[2] = second compound 0.00316 µM, first compound 0.01 µM
[3] = second compound 0.00316 µM, first compound 0.0316 µM
[4] = second compound 0.00316 µM, first compound 0.1 µM
[5] = second compound 0.01 µM, first compound 0.00316 µM
[6] = second compound 0.01 µM, first compound 0.01 µM
[7] = second compound 0.01 µM, first compound 0.0316 µM
[8] = second compound 0.01 µM, first compound 0.1 µM
[9] = second compound 0.0316 µM, first compound 0.00316 µM
[10] = second compound 0.0316 µM, first compound 0.01 µM
[11] = second compound 0.0316 µM, first compound 0.0316 µM
[12] = second compound 0.0316 µM, first compound 0.1 µM
[13] = second compound 0.1 µM, first compound 0.00316 µM
[14] = second compound 0.1 µM, first compound 0.01 µM
[15] = second compound 0.1 µM, first compound 0.0316 µM
[16] = second compound 0.1 µM, first compound 0.1 µM
[17] = second compound 0.316 µM, first compound 0.00316 µM
[18] = second compound 0.316 µM, first compound 0.01 µM
[19] = second compound 0.316 µM, first compound 0.0316 µM
[20] = second compound 0.316 µM, first compound 0.1 µM
[21] = second compound 1 µM, first compound 0.00316 µM
[22] = second compound 1 µM, first compound 0.01 µM
[23] = second compound 1 µM, first compound 0.0316 µM
[24] = second compound 1 µM, first compound 0.1 µM
[25] = second compound 0.00316 µM, first compound 0.316 µM
[26] = second compound 0.00316 µM, first compound 1 µM
[27] = second compound 0.01 µM, first compound 0.316 µM
[28] = second compound 0.01 µM, first compound 1 µM
[29] = second compound 0.0316 µM, first compound 0.316 µM
[30] = second compound 0.0316 µM, first compound 1 µM
[31] = second compound 0.1 µM, first compound 0.316 µM
[32] = second compound 0.1 µM, first compound 1 µM
[33] = second compound 0.316 µM, first compound 0.316 µM
[34] = second compound 0.316 µM, first compound 1 µM
[35] = second compound 1 µM, first compound 0.316 µM
[36] = second compound 1 µM, first compound 1 µM
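Note: compound exposure lasted seven days before the viability read.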
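Throughout, for viability, T/C: spheroids also contain HUVEC endothelial cells and mesenchymal stem cells as stroma.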

IC50 (second compound 0.00316 µM): 25.5 nM
IC50 (second compound 0.01 µM): 31.2 nM
IC50 (second compound 0.0316 µM): 25.7 nM
IC50 (second compound 0.1 µM): 26.3 nM
IC50 (second compound 0.316 µM): 22.2 nM
IC50 (second compound 1 µM): 27.3 nM
SMILES: CC(C)n1nc(-c2ccc3oc(N)nc3c2)c2c(N)ncnc21 + C=CC(=O)N1CCN(c2nc(OCC3CCCN3C)nc3c(F)c(-c4nc(N)cc(C)c4C(F)(F)F)c(Cl)cc23)C(C)C1
viability, T/C (second compound 0.00316 µM, first compound 0.000316 µM): 103%
viability, T/C (second compound 0.00316 µM, first compound 0.001 µM): 77.8%
viability, T/C [1]: 95.7%
viability, T/C [2]: 79.1%
viability, T/C [3]: 43.5%
viability, T/C [4]: 34.5%
viability, T/C (second compound 0.01 µM, first compound 0.000316 µM): 93.8%
viability, T/C (second compound 0.01 µM, first compound 0.001 µM): 113%
viability, T/C [5]: 95.9%
viability, T/C [6]: 88%
viability, T/C [7]: 49.3%
viability, T/C [8]: 29.5%
viability, T/C (second compound 0.0316 µM, first compound 0.000316 µM): 76%
viability, T/C (second compound 0.0316 µM, first compound 0.001 µM): 134%
viability, T/C [9]: 87.1%
viability, T/C [10]: 93.7%
viability, T/C [11]: 40.5%
viability, T/C [12]: 29.7%
viability, T/C (second compound 0.1 µM, first compound 0.000316 µM): 141%
viability, T/C (second compound 0.1 µM, first compound 0.001 µM): 141%
viability, T/C [13]: 109%
viability, T/C [14]: 79.7%
viability, T/C [15]: 42.6%
viability, T/C [16]: 31.3%
viability, T/C (second compound 0.316 µM, first compound 0.000316 µM): 141%
viability, T/C (second compound 0.316 µM, first compound 0.001 µM): 134%
viability, T/C [17]: 91.3%
viability, T/C [18]: 68.9%
viability, T/C [19]: 42.9%
viability, T/C [20]: 33.4%
viability, T/C (second compound 1 µM, first compound 0.000316 µM): 149%
viability, T/C (second compound 1 µM, first compound 0.001 µM): 90.5%
viability, T/C [21]: 87.6%
viability, T/C [22]: 79.2%
viability, T/C [23]: 42.4%
viability, T/C [24]: 28.8%

IC50 (second compound 0.00316 µM): 1320 nM
IC50 (second compound 0.01 µM): 419 nM
IC50 (second compound 0.0316 µM): 634 nM
IC50 (second compound 0.1 µM): 833 nM
IC50 (second compound 0.316 µM): 261 nM
IC50 (second compound 1 µM): 180 nM
SMILES: CC(Nc1ccc2c(c1)OCCn1cc(N3C(=O)OCC3C(F)F)nc1-2)C(N)=O (stereo unspecified) + C=CC(=O)N1CCN(c2nc(OCC3CCCN3C)nc3c(F)c(-c4nc(N)cc(C)c4C(F)(F)F)c(Cl)cc23)C(C)C1
viability, T/C [3]: 66.7%
viability, T/C [4]: 70.9%
viability, T/C [25]: 43%
viability, T/C [26]: 64.7%
viability, T/C (second compound 0.00316 µM, first compound 3.16 µM): 38.4%
viability, T/C (second compound 0.00316 µM, first compound 10 µM): 19.8%
viability, T/C [7]: 64.1%
viability, T/C [8]: 58.3%
viability, T/C [27]: 43.5%
viability, T/C [28]: 52%
viability, T/C (second compound 0.01 µM, first compound 3.16 µM): 35.5%
viability, T/C (second compound 0.01 µM, first compound 10 µM): 22.9%
viability, T/C [11]: 56.9%
viability, T/C [12]: 71.3%
viability, T/C [29]: 43.5%
viability, T/C [30]: 53.3%
viability, T/C (second compound 0.0316 µM, first compound 3.16 µM): 30.4%
viability, T/C (second compound 0.0316 µM, first compound 10 µM): 19.7%
viability, T/C [15]: 67.3%
viability, T/C [16]: 54.8%
viability, T/C [31]: 67.6%
viability, T/C [32]: 45.6%
viability, T/C (second compound 0.1 µM, first compound 3.16 µM): 28.8%
viability, T/C (second compound 0.1 µM, first compound 10 µM): 19.4%
viability, T/C [19]: 72.4%
viability, T/C [20]: 90.1%
viability, T/C [33]: 43.8%
viability, T/C [34]: 42.7%
viability, T/C (second compound 0.316 µM, first compound 3.16 µM): 33.3%
viability, T/C (second compound 0.316 µM, first compound 10 µM): 22.5%
viability, T/C [23]: 124%
viability, T/C [24]: 53.4%
viability, T/C [35]: 48.9%
viability, T/C [36]: 35.4%
viability, T/C (second compound 1 µM, first compound 3.16 µM): 33%
viability, T/C (second compound 1 µM, first compound 10 µM): 19.8%

IC50 (second compound 0.00316 µM): 23 nM
IC50 (second compound 0.01 µM): 14.2 nM
IC50 (second compound 0.0316 µM): 37.2 nM
IC50 (second compound 0.1 µM): 40.1 nM
IC50 (second compound 0.316 µM): 72 nM
IC50 (second compound 1 µM): 26.9 nM
SMILES: O=C(c1ccc(F)c(F)c1Nc1ccc(I)cc1F)N1CC(O)([C@@H]2CCCCN2)C1 + C=CC(=O)N1CCN(c2nc(OCC3CCCN3C)nc3c(F)c(-c4nc(N)cc(C)c4C(F)(F)F)c(Cl)cc23)C(C)C1
viability, T/C [1]: 93%
viability, T/C [2]: 58%
viability, T/C [3]: 48%
viability, T/C [4]: 36.6%
viability, T/C [25]: 29.8%
viability, T/C [26]: 23.3%
viability, T/C [5]: 84.2%
viability, T/C [6]: 45.3%
viability, T/C [7]: 45.7%
viability, T/C [8]: 38.2%
viability, T/C [27]: 31.4%
viability, T/C [28]: 19.6%
viability, T/C [9]: 65.2%
viability, T/C [10]: 62.1%
viability, T/C [11]: 44.4%
viability, T/C [12]: 47.2%
viability, T/C [29]: 33.2%
viability, T/C [30]: 21.5%
viability, T/C [13]: 65%
viability, T/C [14]: 61.3%
viability, T/C [15]: 44.8%
viability, T/C [16]: 50.8%
viability, T/C [31]: 31.2%
viability, T/C [32]: 24.1%
viability, T/C [17]: 97%
viability, T/C [18]: 66.4%
viability, T/C [19]: 62.6%
viability, T/C [20]: 48.1%
viability, T/C [33]: 33.8%
viability, T/C [34]: 20.3%
viability, T/C [21]: 80.2%
viability, T/C [22]: 65.4%
viability, T/C [23]: 42.6%
viability, T/C [24]: 39.3%
viability, T/C [35]: 32.5%
viability, T/C [36]: 22.6%
